The structures appear in SMILES notation.

The data set in a line: Human HepG2 cell viability assay in 384 well format. Conditions: HepG2 cells, read-out: Inhibition. It is filed as toxicity, cell-based. Details: dose 125 nL, time 70.5 hour; cytotoxicity at 70.5 h: concentration not given beside the values.
Turning to `CC(=O)N1CCCC(C(=O)NCCc2csc(-c3ccncc3)n2)C1` (stereo not given), the cytotoxicity at 70.5 h was -5.2%.

With `COc1ccc2c(c1)OCC(Cc1ccc(N)nc1C)C2` (stereo not given), the cytotoxicity at 70.5 h is -8.63%.

For `O=C(c1ccon1)N1CCCC(n2cncn2)C1` (stereo not given), the cytotoxicity at 70.5 h is -1.78%.

As for `CC1CN(Cc2cnn(C)c2)CCN1c1ccc2nncn2n1` (stereo not given), the cytotoxicity at 70.5 h was -14.4%.

For the compound `O=C(O)C1(Cc2cccc(-c3ccc(F)cc3)c2)CCOCC1`, the cytotoxicity at 70.5 h turned out to be 9.21%.

Turning to `CC(=O)N1CC2(CCN(c3ccc4ccccc4n3)CC2)CC1C(=O)O` (stereo not given), the cytotoxicity at 70.5 h is 4.97%.

For `COCCNS(=O)(=O)c1ccc(CNc2ncccc2C#N)cc1`, the cytotoxicity at 70.5 h is -12.6%.

Consider `CCCc1ccc(N2CCN(Cc3nc4ccccc4n3C)CC2)cc1`, for which the cytotoxicity at 70.5 h turned out to be 19.9%.

For `CC(C)(C)CN1CCC(c2nnc(Cn3ccnc3)n2C2CC2)CC1`, the cytotoxicity at 70.5 h was -3.87%.

On to `Cn1nc(CN2CCOCC2)c2c1CN(Cc1ccsc1)C2`, for which the cytotoxicity at 70.5 h is -5.85%.

In the case of `COc1cc(N2CCCC(CO)(Cc3ccccc3F)C2)ncn1` (stereo not given), the cytotoxicity at 70.5 h turned out to be 50.5%.

Regarding `CCn1cnnc1C1CCN(C(=O)c2ccoc2C)CC1`, the cytotoxicity at 70.5 h was 11.9%.

Turning to `Cc1cccc(-c2noc([C@@H]3C[C@@H](O)CN3C3CCOCC3)n2)c1`, the cytotoxicity at 70.5 h is -3.79%.

In the case of `O=C(NC1CCCCC1)c1ccc(COCC(F)(F)F)o1`, the cytotoxicity at 70.5 h was 19.8%.

On to `Cc1noc(C[C@@H]2COC[C@H]3CN(C(=O)C4=CCCC4)C[C@@H]23)n1`, for which the cytotoxicity at 70.5 h is -13.5%.

For `COc1ccc(N2CCCN(CC(=O)N3CCNC(=O)C3)CC2)cc1`, the cytotoxicity at 70.5 h is -8.51%.

Consider `CCn1ccnc1CN1CCN(CC(O)Cn2cccn2)CC1` (stereo not given), for which the cytotoxicity at 70.5 h was -10.4%.

Consider `COCCCC1(C(=O)O)CCCN(C(=O)c2ccc(C(C)C)[nH]c2=O)C1` (stereo not given), for which the cytotoxicity at 70.5 h is -5.84%.

With `COc1ccccc1-c1nc(C(=O)N(C)C)n2ccncc12`, the cytotoxicity at 70.5 h was -8.75%.

Take `Cc1ncsc1C(=O)N1CCCC1c1c(C)nn(C)c1Cl` (stereo not given): the cytotoxicity at 70.5 h was -13.8%.

For `CCOc1cccnc1C(=O)N1CCCN(c2nc(C)cs2)CC1`, the cytotoxicity at 70.5 h was -3.42%.

Regarding `CCc1ncnc2c1CCN(c1ncc(F)cn1)CC2`, the cytotoxicity at 70.5 h is -7.64%.

In the case of `Cc1occc1C(=O)N1CCC(C(O)c2ccc(Cl)cc2)CC1` (stereo not given), the cytotoxicity at 70.5 h came out at 5.5%.

As for `Cc1cnn(CC2CCCCN2C(=O)c2cccc(C(N)=O)c2)c1` (stereo not given), the cytotoxicity at 70.5 h is -1.63%.

For the compound `Cc1cccc(NC(=O)NC2CCN(C3CCOC3)CC2)c1` (stereo not given), the cytotoxicity at 70.5 h was 3.03%.

In the case of `O=C(NCCNc1ncccn1)C1CC(=O)N(Cc2ccccn2)C1` (stereo not given), the cytotoxicity at 70.5 h is 17.5%.

Consider `Cc1noc(CN2CC(=O)N(C)c3ccccc3C2=O)n1`, for which the cytotoxicity at 70.5 h is -8.97%.

On to `COc1ncnc(N)c1CNCCc1ccc(-n2cccn2)cc1`, for which the cytotoxicity at 70.5 h was -1.5%.

As to `Cc1nccn1-c1ncccc1NC(=O)CCOCC(C)C`, the cytotoxicity at 70.5 h is -7.64%.

With `CN1CCCN(C(=O)c2cnsn2)c2cc(F)ccc21`, the cytotoxicity at 70.5 h is 25.1%.

With `O=C1CCC[C@]2(CN(S(=O)(=O)N3CCCCC3)C[C@H]2c2cccnc2)N1`, the cytotoxicity at 70.5 h was -6.21%.

Regarding `CC(=O)N1CCCCCC1C1CCN(Cc2nnc(C(C)(C)C)o2)CC1` (stereo not given), the cytotoxicity at 70.5 h is -5.64%.

For the compound `CCc1cnc(CN(C)C2CCN(CCCNS(C)(=O)=O)C2)o1` (stereo not given), the cytotoxicity at 70.5 h was -2.35%.

As for `Cc1nc(C2CCCN(C(=O)c3cc(Cl)c4c(c3)OCO4)C2)no1` (stereo not given), the cytotoxicity at 70.5 h was -5.22%.

For the compound `O=C(C1CC1)N1Cc2[nH]nc(COCc3cccnc3)c2C1`, the cytotoxicity at 70.5 h is -0.809%.

Turning to `CC(NC1(CNC(=O)NC2CC2)CCOCC1)c1ccccc1` (stereo not given), the cytotoxicity at 70.5 h was 14.3%.

For the compound `Cc1cc(NC(=O)CN2CCCC2c2noc(C)n2)n(C(C)(C)C)n1` (stereo not given), the cytotoxicity at 70.5 h was -7.96%.

On to `Cc1cc(-c2cnc(NCc3ccc4c(c3)OCO4)nc2C(C)C)on1`, for which the cytotoxicity at 70.5 h is -4.67%.

As to `CNC(=O)CNC(=O)Nc1cc(-c2ccccc2)ns1`, the cytotoxicity at 70.5 h worked out at 29.7%.

On to `O=C(O)c1coc(COc2cccc3cnccc23)n1`, for which the cytotoxicity at 70.5 h is -7.63%.

Regarding `COc1ccccc1CC(=O)N1CCCC(c2cc(C)[nH]n2)C1` (stereo not given), the cytotoxicity at 70.5 h came out at 3.02%.

Consider `Cn1cc(C(=O)N[C@@H]2CN(Cc3cccnc3)[C@@H]3CCCO[C@@H]32)cn1`, for which the cytotoxicity at 70.5 h was -4.29%.

Consider `Cc1ccc2c(c1)C1(CCNCC1)CN2C(=O)CN(C)C`, for which the cytotoxicity at 70.5 h was 4.93%.

On to `Cc1nc2n(n1)CC(NCc1ccnc(-c3ccccc3)n1)CC2` (stereo not given), for which the cytotoxicity at 70.5 h was -2.5%.

Consider `COc1cc(NC(=O)NCc2nccn2C)ccc1Br`, for which the cytotoxicity at 70.5 h is -4.24%.

With `CC(=O)N1CCC(N2CCN3C(=O)N(c4ccccc4)C[C@H]3C2)CC1`, the cytotoxicity at 70.5 h worked out at 3.66%.

As to `N#Cc1c(SCCN2CCCCC2)sc2c(O)cc(O)nc12`, the cytotoxicity at 70.5 h was 17.9%.

Turning to `Cc1ccccc1CN1CCN(C(=O)CN2CCOC2=O)CC1`, the cytotoxicity at 70.5 h was -6.85%.

Consider `Cc1cn2c(n1)CCC(NC(=O)Cn1cncn1)C2` (stereo not given), for which the cytotoxicity at 70.5 h was -5.67%.

Regarding `Cn1cc(N2CCN(c3ccc(C#N)c(Cl)c3)CC2=O)cn1`, the cytotoxicity at 70.5 h is -14.1%.

As to `Cc1cc(N2CCN(C(=O)Cc3ccc4c(c3)OCO4)CC2)cc(C)n1`, the cytotoxicity at 70.5 h was -9.94%.

On to `CN(c1cccnn1)C1CCN(C(=O)c2ccc3c(c2)COC3)CC1`, for which the cytotoxicity at 70.5 h is -13.7%.

`Cc1cnn(CC2CCCN2C(=O)Cc2ccc(C)nc2)c1` (stereo not given): the cytotoxicity at 70.5 h is -7.79%.

For `CC(C)(C)C(=O)CN1CCc2ccccc2NCCC1=O`, the cytotoxicity at 70.5 h was 3.4%.

As to `O=C(CC1CC1)N1C[C@@H]2CCN(c3cccnc3)C[C@@H]2C1`, the cytotoxicity at 70.5 h is -11.6%.

For the compound `CN(Cc1nccn1C)CC1CCOc2ccccc2C1` (stereo not given), the cytotoxicity at 70.5 h was 22.3%.

Turning to `Cc1ccc2nc(C3CCN(CCO)CC3)nn2c1`, the cytotoxicity at 70.5 h was 21.1%.

Turning to `Cc1ccc(CCCC(=O)N2CC(=O)Nc3cccnc32)s1`, the cytotoxicity at 70.5 h is -11.1%.

As to `COc1ccc(Cl)cc1C(=O)NCC1CCN(C(=O)c2ccoc2)CC1`, the cytotoxicity at 70.5 h is -15.3%.

Regarding `COc1ccc2c(c1)CN(CC(=O)NC1CCCC1)CC2`, the cytotoxicity at 70.5 h was -12.6%.

For `Cc1nc(C2CCCNC2)cc(N(Cc2c(C)nn(C)c2C)C2CC2)n1` (stereo not given), the cytotoxicity at 70.5 h was -0.0304%.

On to `Cc1nc(CN2CCCN(Cc3nc4ccccc4o3)CC2)no1`, for which the cytotoxicity at 70.5 h was -8.61%.

Turning to `Cc1ccc(S(=O)(=O)N2C[C@@H]3CCN[C@@H]3C2)cc1`, the cytotoxicity at 70.5 h is -4.81%.

Turning to `CCCS(=O)(=O)N1CCOC2(COCCN(C(C)=O)C2)C1` (stereo not given), the cytotoxicity at 70.5 h was -8.79%.

As to `Cc1nnc(CN2CCN(CCOc3ccccc3C#N)CC2)n1C`, the cytotoxicity at 70.5 h was found to be 7.15%.

As to `CC(C)CCC(C)NC(=O)c1ccc(OCC(N)=O)cc1` (stereo not given), the cytotoxicity at 70.5 h was -3.72%.

For the compound `CCN1C(=O)CC(c2ccccc2)C12CCN(CC1CCOCC1)CC2` (stereo not given), the cytotoxicity at 70.5 h is -8.46%.

On to `CCN(C)c1ccc(CNC(=O)c2cc(C(N)=O)cs2)cc1F`, for which the cytotoxicity at 70.5 h was -8.22%.

Take `Cc1ccc(CN2C[C@@H]3COC[C@H](NS(C)(=O)=O)[C@@H]3C2)s1`: the cytotoxicity at 70.5 h is -10.6%.

For the compound `COc1ccc(CN2CCO[C@H]3[C@H](Oc4ccccn4)CC[C@@H]32)cc1`, the cytotoxicity at 70.5 h is -2.38%.

On to `c1coc(-c2noc(CN3CCCCC3Cn3cncn3)n2)c1` (stereo not given), for which the cytotoxicity at 70.5 h is 5.99%.

For `CC(C)CCNC(=O)c1c(-n2cnnn2)sc2c1CCCC2`, the cytotoxicity at 70.5 h was -0.216%.

As for `CC(C)OCCS(=O)(=O)NC1CCN(C2CCCC2)C1` (stereo not given), the cytotoxicity at 70.5 h was 8.61%.

For the compound `CN(C)c1ncc(-c2cncnc2)c(C2CNCCO2)n1` (stereo not given), the cytotoxicity at 70.5 h was -8.74%.

Take `O=C(CN1CCOCC1)Nc1ncc(Br)cc1Br`: the cytotoxicity at 70.5 h is -5.32%.

In the case of `Fc1cc(Cl)cnc1N1CCCC(c2nccn2Cc2ccccn2)C1` (stereo not given), the cytotoxicity at 70.5 h was 10.1%.

For the compound `Cc1ccc(C(=O)NCC(O)CN2CCCC2=O)cc1Cl` (stereo not given), the cytotoxicity at 70.5 h came out at 6.85%.

On to `Cc1noc(C)c1CN(C)C(=O)C1CCCCN1CC(C)C` (stereo not given), for which the cytotoxicity at 70.5 h was 5.24%.

With `CCc1nc(C2CCCN2C(=O)c2ccc3c(c2)nc(C)n3C)no1` (stereo not given), the cytotoxicity at 70.5 h was -8.32%.

Consider `Cc1ncsc1CN1CCOC(C)(C(=O)N2CCOCC2)C1` (stereo not given), for which the cytotoxicity at 70.5 h was -2.94%.

For the compound `Cc1nc(CN2CCC3(C2)CN(Cc2ccco2)C3)cs1`, the cytotoxicity at 70.5 h was -3.68%.

Consider `Cc1ccc(N2CCCC(NCc3sccc3C)C2)nn1` (stereo not given), for which the cytotoxicity at 70.5 h was -7.95%.

Take `CN1CCOC(CNCc2cccc(OCC(F)(F)F)c2)C1` (stereo not given): the cytotoxicity at 70.5 h was -1.74%.

For `COc1cc(F)c(S(=O)(=O)N2CCN(C)Cc3ccccc32)cc1OC`, the cytotoxicity at 70.5 h was -10.1%.

On to `COc1cccc(CCNC(=O)CN2CCCC2c2noc(C)n2)c1` (stereo not given), for which the cytotoxicity at 70.5 h is -6.83%.

As to `CC(=O)Nc1nc(C2CCCN(C(=O)CN(C)C)C2)cs1` (stereo not given), the cytotoxicity at 70.5 h was -9.21%.

Regarding `O=S(=O)(Nc1ccc2c(c1)OCCO2)N1CCCCC1`, the cytotoxicity at 70.5 h was -0.954%.

Turning to `O=C(NCCN1CCCCCC1=O)c1n[nH]c(=O)c2ccccc12`, the cytotoxicity at 70.5 h was -20.8%.

Turning to `Cn1nnnc1SCCC(=O)NCC1Cc2ccccc2O1` (stereo not given), the cytotoxicity at 70.5 h is -23.7%.

As to `FC(F)(F)c1cc(C2CCCN(c3cnccn3)C2)n2ccnc2n1` (stereo not given), the cytotoxicity at 70.5 h was -11.9%.

For the compound `CN(C)CC1CSCCCN1C(=O)c1ccc(C(C)(C)C)cc1` (stereo not given), the cytotoxicity at 70.5 h was -0.949%.

Turning to `COc1c(C2CCCN2C(=O)c2cccc(C)n2)c(C)nn1C` (stereo not given), the cytotoxicity at 70.5 h was -16.2%.

As for `NC(=O)c1cncc(Oc2cccc(CN3CCCC3)c2Cl)n1`, the cytotoxicity at 70.5 h was -4.84%.

On to `COCCCNC(=O)c1c(C)noc1C(C)C`, for which the cytotoxicity at 70.5 h is -11.8%.

As to `CCn1cc(S(=O)(=O)Nc2ccc3[nH]c(C4CCC4)nc3c2)cn1`, the cytotoxicity at 70.5 h stood at 24.1%.

Take `Cc1nc2c(c(NCc3cnc4c(c3)CCC4)n1)CNC2`: the cytotoxicity at 70.5 h was -6.06%.

With `CCN1CCN(C2CCN(Cc3nc(C4CC4)no3)CC2)C1=O`, the cytotoxicity at 70.5 h is -5.25%.

As for `O=C(NCC1CC2(CO1)CN(Cc1cccs1)C2)C1CCC1` (stereo not given), the cytotoxicity at 70.5 h was 19.9%.

On to `Cc1cc(C)n(C2CCCN(C(=O)c3c(C)c(C)n[nH]c3=O)C2)n1` (stereo not given), for which the cytotoxicity at 70.5 h is -8.79%.

As to `O=C(NC1CCCC1)[C@H]1C[C@H]2OCC[C@H]2N(Cc2ccoc2)C1`, the cytotoxicity at 70.5 h is -4.07%.

The record behind these values is ChEMBL document CHEMBL3507680, “University of Dundee, Gates Library screen for HepG2 cell viability”.
